Measurements as given in patent US12595253B2, “Benzamides of pyrazolylamino-pyrimidinyl derivatives, and compositions and methods thereof” (LYNK PHARMACEUTICALS CO. LTD., priority 2019, dated 2026).

Key:
[1] = Dog pharmacokinetic study (intravenous and oral); format: in vivo; details: plasma, Beagle dogs, oral, 20 mg/kg, solution
[2] = Rat pharmacokinetic study (intravenous and oral); format: in vivo; details: male, plasma, Sprague-Dawley rats, intravenous, 1 mg/kg, solution
Procedure: Pharmacokinetic profile of test articles in rodent were evaluated in fasted male ICR mouse and Sprague-Dawley rats. […] Typically, mice were dosed with 2 mg/kg and 10 mg/kg by intravenous injection and oral gavage, respectively. Rats were dosed with 1 mg/kg and 5 mg/kg by intravenous injection and oral gavage, respectively. Beagle dogs were dosed with 1 mg/kg and 5 mg/kg by intravenous injection and oral gavage, respectively. After dosing, blood samples were collected at each time point. For IV injection group, time points were set at 5, 15, 30 min, and then 1, 2, 4, 8 and 24 hours after dosing. For oral gavage group, timepoints were set at 15, 30 m, and then 1, 2, 4, 8, and 24 hours. Blood was collected into appropriately labeled tubes containing K2EDTA as the anticoagulant. Plasma was obtained within 1 hours of blood collection by centrifugation at 8000×g and 4° C. for 6 minutes, and then stored at −20° C. until analyzed by LCMS/MS for quantification.

[3] = Rat pharmacokinetic study (intravenous and oral); format: in vivo; details: Sprague-Dawley rats, oral, 2 mg/kg, solution
[4] = Mouse pharmacokinetic study (intravenous and oral); format: in vivo; details: male, plasma, ICR mice, solution
Procedure: Pharmacokinetic profile of test articles in rodent were evaluated in fasted male ICR mouse and Sprague-Dawley rats. […] Rats were dosed with 1 mg/kg and 5 mg/kg by intravenous injection and oral gavage, respectively. Beagle dogs were dosed with 1 mg/kg and 5 mg/kg by intravenous injection and oral gavage, respectively. After dosing, blood samples were collected at each time point. For IV injection group, time points were set at 5, 15, 30 min, and then 1, 2, 4, 8 and 24 hours after dosing. For oral gavage group, timepoints were set at 15, 30 m, and then 1, 2, 4, 8, and 24 hours. Blood was collected into appropriately labeled tubes containing K2EDTA as the anticoagulant. Plasma was obtained within 1 hours of blood collection by centrifugation at 8000×g and 4° C. for 6 minutes, and then stored at −20° C. until analyzed by LCMS/MS for quantification.

[5] = Mini-pig dermal pharmacokinetic study; format: in vivo, Guangxi Bama mini-pigs; details: topical administration
Source text: The aim of this study was to obtain the topical distribution of test articles in mini-pig after topical administration. Test articles were formulated in 50% PEG400, 10% transcutol and 40% PEG3350 (50% in water), and then applied to male Guangxi Bama mini-pigs (17-20 kg). Twenty-four hour prior to dosing, the hair of the mini-pig was shaved in left and right sides of the back. Two areas at least 5 cm apart at each side of the back were exposed (a total of four areas, each of which was about 112 cm^2). At the time zero, the test article was dosed to the exposed skins with […]. After dosing, the blood and skin samples were collected at 0.5, 1, 3, 6 hour. The blood was taken via venipuncture, and collected to the tubes containing heparin sodium as the anticoagulant. Exposed skin was washed with soap and water before skin sample was collected. Upon the dosed skin the punch biopsy from the epidermis layer to the muscle layer were taken at each time point. Epidermis, dermis, subcutis and subcutaneous muscle were quickly separated, weighed and frozen in dry ice. Epidermis and dermis were homogenized in 1:3 (w/v) normal saline. Homogenized samples were extracted with 3 fold volumes of acetonitrile and quantified against a standard curve with LC-MS/MS system.

An AUC [1] of 57.2 ng·h/mL, a Cmax [1] of 58 ng/mL and a bioavailability [1] of 1.8% were found for `Cc1cnc(Nc2cnn(CC#N)c2)nc1-c1ccc(C(=O)NCC#N)cc1` [Example 4, N-(Cyanomethyl)-4-(2-((1-(cyanomethyl)-1H-pyrazol-4-yl)amino)-5-methylpyrimidin-4-yl)benzamide] in this work. The half-life [1] was 26.3 min, the AUC [2] was 855 ng·h/mL and the Vd [2] was 0.37 L/kg. It also gave a clearance [2] of 19.4 mL/min/kg, a half-life [2] of 13.2 min and an F [3] of 1.9%. The AUC ([3]; male, rat, plasma) was 29.8 ng·h/mL, the Cmax ([3]; male, rat, plasma) was 40.4 ng/mL and the half-life ([3]; male, rat, plasma) was 22.8 min.

An AUC ([4]; intravenous, 1 mg/kg) of 279 ng·h/mL, a Vd ([4]; intravenous, 1 mg/kg) of 0.67 L/kg and a clearance ([4]; intravenous, 1 mg/kg) of 59.5 mL/min/kg were found for `Cc1cnc(Nc2cnn(C3CC(C)(C)OC(C)(C)C3)c2)nc1-c1ccc(C(=O)NCC#N)cc1` [Example 113, N-(cyanomethyl)-4-(5-methyl-2-((1-(2,2,6,6-tetramethyltetrahydro-2H-pyran-4-yl)-1H-pyrazol-4-yl)amino)pyrimidin-4-yl)benzamide] in this work. It also gave a half-life ([4]; intravenous, 1 mg/kg) of 7.8 min, an AUC ([4]; oral, 5 mg/kg) of 113 ng·h/mL and a Cmax ([4]; oral, 5 mg/kg) of 175 ng/mL. For the same molecule, the bioavailability ([4]; oral, 5 mg/kg) was 8.26%, the half-life ([4]; oral, 5 mg/kg) was 102 min and the “Dermis, AUC0-last” value ([5]; dermis) was 5209.4 ng·h/g. The “Epidermis AUC0-last” value ([5]; epidermis) was 107236.9 ng·h/g.
